From patent US5561140A, “Substituted alicyclic amine-containing macrocyclic immunomodulators” (Abbott Laboratories, priority 1995, dated 1996)
pIC50: −log10 of the molar value.

The molecules below were run on human mixed lymphocyte reaction (MLR) (assay: human mixed lymphocyte reaction (MLR) assay of immunosuppressant activity). Details: Table 1.
Type: cell-based
Procedure: The immunosuppressant activity of the compounds of the present invention was determined using the human mixed lymphocyte reaction (MLR) assay described by Kino, T. et al. in Transplantation Proceedings XIX(5):36-39, Suppl. 6 (1987), incorporated herein by reference.

pIC50, > 6.00:
CC[C@@H]1/C=C(\C)C[C@H](C)C[C@H](OC)[C@H]2O[C@@](O)(C(=O)C(=O)N3CCCC[C@H]3C(=O)O[C@H](/C(C)=C/[C@@H]3CCC(N4CCC[C@@H]4CO)[C@H](OC)C3)[C@H](C)[C@@H](O)CC1=O)[C@H](C)C[C@@H]2OC (single isomer, unassigned) [Example 76]
CC[C@@H]1/C=C(\C)C[C@H](C)C[C@H](OC)[C@H]2O[C@@](O)(C(=O)C(=O)N3CCCC[C@H]3C(=O)O[C@H](/C(C)=C/[C@@H]3CCC(N4CCC[C@H]4CO)[C@H](OC)C3)[C@H](C)[C@@H](O)CC1=O)[C@H](C)C[C@@H]2OC (single isomer, unassigned) [Example 109]
CC[C@@H]1/C=C(\C)C[C@H](C)C[C@H](OC)[C@H]2O[C@@](O)(C(=O)C(=O)N3CCCC[C@H]3C(=O)O[C@H](/C(C)=C/[C@@H]3CCC(N4CCN(C)CC4)[C@H](OC)C3)[C@H](C)[C@@H](O)CC1=O)[C@H](C)C[C@@H]2OC (stereo partly shown) [Example 5]
CC[C@@H]1/C=C(\C)C[C@H](C)C[C@H](OC)[C@H]2O[C@@](O)(C(=O)C(=O)N3CCCC[C@H]3C(=O)O[C@H](/C(C)=C/[C@@H]3CCC(N4CCN(Cc5ccccc5)CC4)[C@H](OC)C3)[C@H](C)[C@@H](O)CC1=O)[C@H](C)C[C@@H]2OC (stereo partly shown) [Example 7]
CC[C@@H]1/C=C(\C)C[C@H](C)C[C@H](OC)[C@H]2O[C@@](O)(C(=O)C(=O)N3CCCC[C@H]3C(=O)O[C@H](/C(C)=C/[C@@H]3CCC(N4CCN(c5ccccc5)CC4)[C@H](OC)C3)[C@H](C)[C@@H](O)CC1=O)[C@H](C)C[C@@H]2OC (stereo partly shown) [Example 9]
CC[C@@H]1/C=C(\C)C[C@H](C)C[C@H](OC)[C@H]2O[C@@](O)(C(=O)C(=O)N3CCCC[C@H]3C(=O)O[C@H](/C(C)=C/[C@@H]3CCC(N4CCN(C(=O)OC(C)(C)C)CC4)[C@H](OC)C3)[C@H](C)[C@@H](O)CC1=O)[C@H](C)C[C@@H]2OC (stereo partly shown) [Example 11]
CCC1C=C(C)CC(C)CC(OC)C2OC(O)(C(=O)C(=O)N3CCCCC3C(=O)OC(C(C)=CC3CCC(N4CCN(Cc5ccc([N+](=O)[O-])cc5)CC4)C(OC)C3)C(C)C(O)CC1=O)C(C)CC2OC (stereo not shown) [Example 12]
CCC1C=C(C)CC(C)CC(OC)C2OC(O)(C(=O)C(=O)N3CCCCC3C(=O)OC(C(C)=CC3CCC(N4CCN(Cc5ccc6ccccc6c5)CC4)C(OC)C3)C(C)C(O)CC1=O)C(C)CC2OC (stereo not shown) [Example 13]
CC[C@@H]1/C=C(\C)C[C@H](C)C[C@H](OC)[C@H]2O[C@@](O)(C(=O)C(=O)N3CCCC[C@H]3C(=O)O[C@H](/C(C)=C/[C@@H]3CCC(N4CCCCC4)[C@H](OC)C3)[C@H](C)[C@@H](O)CC1=O)[C@H](C)C[C@@H]2OC (stereo partly shown) [Example 14]
CC[C@@H]1/C=C(\C)C[C@H](C)C[C@H](OC)[C@H]2O[C@@](O)(C(=O)C(=O)N3CCCC[C@H]3C(=O)O[C@H](/C(C)=C/[C@@H]3CCC(N4CCN(C=O)CC4)[C@H](OC)C3)[C@H](C)[C@@H](O)CC1=O)[C@H](C)C[C@@H]2OC (stereo partly shown) [Example 15]
CC[C@@H]1/C=C(\C)C[C@H](C)C[C@H](OC)[C@H]2O[C@@](O)(C(=O)C(=O)N3CCCC[C@H]3C(=O)O[C@H](/C(C)=C/[C@@H]3CCC(N4CCC5(CC4)OCCO5)[C@H](OC)C3)[C@H](C)[C@@H](O)CC1=O)[C@H](C)C[C@@H]2OC (stereo partly shown) [Example 16]
CC[C@@H]1/C=C(\C)C[C@H](C)C[C@H](OC)[C@H]2O[C@@](O)(C(=O)C(=O)N3CCCC[C@H]3C(=O)O[C@H](/C(C)=C/[C@@H]3CCC(N4CCN(CCO)CC4)[C@H](OC)C3)[C@H](C)[C@@H](O)CC1=O)[C@H](C)C[C@@H]2OC (stereo partly shown) [Example 17]
CC[C@@H]1/C=C(\C)C[C@H](C)C[C@H](OC)[C@H]2O[C@@](O)(C(=O)C(=O)N3CCCC[C@H]3C(=O)O[C@H](/C(C)=C/[C@@H]3CCC(N4CCOCC4)[C@H](OC)C3)[C@H](C)[C@@H](O)CC1=O)[C@H](C)C[C@@H]2OC (stereo partly shown) [Example 18]
CC[C@@H]1/C=C(\C)C[C@H](C)C[C@H](OC)[C@H]2O[C@@](O)(C(=O)C(=O)N3CCCC[C@H]3C(=O)O[C@H](/C(C)=C/[C@@H]3CCC(N4CCN(CCOCCO)CC4)[C@H](OC)C3)[C@H](C)[C@@H](O)CC1=O)[C@H](C)C[C@@H]2OC (stereo partly shown) [Example 19]
CC[C@@H]1/C=C(\C)C[C@H](C)C[C@H](OC)[C@H]2O[C@@](O)(C(=O)C(=O)N3CCCC[C@H]3C(=O)O[C@H](/C(C)=C/[C@@H]3CCC(N4CCN(c5ccccn5)CC4)[C@H](OC)C3)[C@H](C)[C@@H](O)CC1=O)[C@H](C)C[C@@H]2OC (stereo partly shown) [Example 20]
CC[C@@H]1/C=C(\C)C[C@H](C)C[C@H](OC)[C@H]2O[C@@](O)(C(=O)C(=O)N3CCCC[C@H]3C(=O)O[C@H](/C(C)=C/[C@@H]3CCC(N4CCN(c5ncccn5)CC4)[C@H](OC)C3)[C@H](C)[C@@H](O)CC1=O)[C@H](C)C[C@@H]2OC (stereo partly shown) [Example 21]
CC[C@@H]1/C=C(\C)C[C@H](C)C[C@H](OC)[C@H]2O[C@@](O)(C(=O)C(=O)N3CCCC[C@H]3C(=O)O[C@H](/C(C)=C/[C@@H]3CCC(N4CCNCC4)[C@H](OC)C3)[C@H](C)[C@@H](O)CC1=O)[C@H](C)C[C@@H]2OC (stereo partly shown) [Example 22]
CC[C@@H]1/C=C(\C)C[C@H](C)C[C@H](OC)[C@H]2O[C@@](O)(C(=O)C(=O)N3CCCC[C@H]3C(=O)O[C@H](/C(C)=C/[C@@H]3CCC(N4CCN(CC(=O)N5CCCC5)CC4)[C@H](OC)C3)[C@H](C)[C@@H](O)CC1=O)[C@H](C)C[C@@H]2OC (stereo partly shown) [Example 27]
CC[C@@H]1/C=C(\C)C[C@H](C)C[C@H](OC)[C@H]2O[C@@](O)(C(=O)C(=O)N3CCCC[C@H]3C(=O)O[C@H](/C(C)=C/[C@@H]3CCC(N4CCN(CC(=O)N5CCOCC5)CC4)[C@H](OC)C3)[C@H](C)[C@@H](O)CC1=O)[C@H](C)C[C@@H]2OC (stereo partly shown) [Example 28]
CC[C@@H]1/C=C(\C)C[C@H](C)C[C@H](OC)[C@H]2O[C@@](O)(C(=O)C(=O)N3CCCC[C@H]3C(=O)O[C@H](/C(C)=C/[C@@H]3CCC(N4CCN(C5CCCC5)CC4)[C@H](OC)C3)[C@H](C)[C@@H](O)CC1=O)[C@H](C)C[C@@H]2OC (stereo partly shown) [Example 31]
CCC1C=C(C)CC(C)CC(OC)C2OC(O)(C(=O)C(=O)N3CCCCC3C(=O)OC(C(C)=CC3CCC(N4CCN(Cc5ccc6c(c5)OCO6)CC4)C(OC)C3)C(C)C(O)CC1=O)C(C)CC2OC (stereo not shown) [Example 38]
CC[C@@H]1/C=C(\C)C[C@H](C)C[C@H](OC)[C@H]2O[C@@](O)(C(=O)C(=O)N3CCCC[C@H]3C(=O)O[C@H](/C(C)=C/[C@@H]3CCC(N4CCN(c5ccc(C(C)=O)cc5)CC4)[C@H](OC)C3)[C@H](C)[C@@H](O)CC1=O)[C@H](C)C[C@@H]2OC (stereo partly shown) [Example 39]
CC[C@@H]1/C=C(\C)C[C@H](C)C[C@H](OC)[C@H]2O[C@@](O)(C(=O)C(=O)N3CCCC[C@H]3C(=O)O[C@H](/C(C)=C/[C@@H]3CCC(N4CCC(N5CCCC5)CC4)[C@H](OC)C3)[C@H](C)[C@@H](O)CC1=O)[C@H](C)C[C@@H]2OC (stereo partly shown) [Example 44]
CCOC(=O)N1CCN(C2CC[C@@H](/C=C(\C)[C@H]3OC(=O)[C@@H]4CCCCN4C(=O)C(=O)[C@]4(O)O[C@H]([C@@H](OC)C[C@@H](C)C/C(C)=C/[C@@H](CC)C(=O)C[C@H](O)[C@H]3C)[C@@H](OC)C[C@H]4C)C[C@H]2OC)CC1 (stereo partly shown) [Example 58]
CC[C@@H]1/C=C(\C)C[C@H](C)C[C@H](OC)[C@H]2O[C@@](O)(C(=O)C(=O)N3CCCC[C@H]3C(=O)O[C@H](/C(C)=C/[C@@H]3CCC(N4CCN(C(C)=O)CC4)[C@H](OC)C3)[C@H](C)[C@@H](O)CC1=O)[C@H](C)C[C@@H]2OC (stereo partly shown) [Example 61]
CC[C@@H]1/C=C(\C)C[C@H](C)C[C@H](OC)[C@H]2O[C@@](O)(C(=O)C(=O)N3CCCC[C@H]3C(=O)O[C@H](/C(C)=C/[C@@H]3CCC(N4CCN(CC(=O)NC(C)C)CC4)[C@H](OC)C3)[C@H](C)[C@@H](O)CC1=O)[C@H](C)C[C@@H]2OC (stereo partly shown) [Example 62]
CC[C@@H]1/C=C(\C)C[C@H](C)C[C@H](OC)[C@H]2O[C@@](O)(C(=O)C(=O)N3CCCC[C@H]3C(=O)O[C@H](/C(C)=C/[C@@H]3CCC(N4CCC(O)CC4)[C@H](OC)C3)[C@H](C)[C@@H](O)CC1=O)[C@H](C)C[C@@H]2OC (stereo partly shown) [Example 67]
CC[C@@H]1/C=C(\C)C[C@H](C)C[C@H](OC)[C@H]2O[C@@](O)(C(=O)C(=O)N3CCCC[C@H]3C(=O)O[C@H](/C(C)=C/[C@@H]3CCC(N4CCCCC4CO)[C@H](OC)C3)[C@H](C)[C@@H](O)CC1=O)[C@H](C)C[C@@H]2OC (stereo partly shown) [Example 105]
CC[C@@H]1/C=C(\C)C[C@H](C)C[C@H](OC)[C@H]2O[C@@](O)(C(=O)C(=O)N3CCCC[C@H]3C(=O)O[C@H](/C(C)=C/[C@@H]3CCC(N4CCCC(CO)C4)[C@H](OC)C3)[C@H](C)[C@@H](O)CC1=O)[C@H](C)C[C@@H]2OC (stereo partly shown) [Example 106]
CC[C@@H]1/C=C(\C)C[C@H](C)C[C@H](OC)[C@H]2O[C@@](O)(C(=O)C(=O)N3CCCC[C@H]3C(=O)O[C@H](/C(C)=C/[C@@H]3CCC(N4CCCCC4CCO)[C@H](OC)C3)[C@H](C)[C@@H](O)CC1=O)[C@H](C)C[C@@H]2OC (stereo partly shown) [Example 107]
CC[C@@H]1/C=C(\C)C[C@H](C)C[C@H](OC)[C@H]2O[C@@](O)(C(=O)C(=O)N3CCCC[C@H]3C(=O)O[C@H](/C(C)=C/[C@@H]3CCC(N4CCCC(O)C4)[C@H](OC)C3)[C@H](C)[C@@H](O)CC1=O)[C@H](C)C[C@@H]2OC (stereo partly shown) [Example 108]
